Measured values published in patent US7271260B2, “3,4-dihydroquinazoline derivatives as T-type calcium channel blockers and method of preparing the same” (Korea Institute of Science and Technology, priority 2004, dated 2007).
Where two headings read alike, the source gives them in different places.

Assays:
[1] = biological target: T1, T-type calcium channel α1H (Cav3.2) (Homo sapiens, UniProt O95180); assay: Two-electrode voltage clamp on Xenopus unfertilized oocytes expressing α1H T-type calcium channel; format: cell-based; details: test potential -20 mV from -90 mV; for inhibition at 100 µM: read-out: inhibitory effect (blocking percentage), Xenopus oocyte (α1H) at 100 μM
T1 construct: expressed in transfected cells; host or cells: Xenopus laevis unfertilized oocytes injected with cRNA (pGEM-HEA linearised with AflII, T7 transcription)
T1 sequence (O95180 whole entry): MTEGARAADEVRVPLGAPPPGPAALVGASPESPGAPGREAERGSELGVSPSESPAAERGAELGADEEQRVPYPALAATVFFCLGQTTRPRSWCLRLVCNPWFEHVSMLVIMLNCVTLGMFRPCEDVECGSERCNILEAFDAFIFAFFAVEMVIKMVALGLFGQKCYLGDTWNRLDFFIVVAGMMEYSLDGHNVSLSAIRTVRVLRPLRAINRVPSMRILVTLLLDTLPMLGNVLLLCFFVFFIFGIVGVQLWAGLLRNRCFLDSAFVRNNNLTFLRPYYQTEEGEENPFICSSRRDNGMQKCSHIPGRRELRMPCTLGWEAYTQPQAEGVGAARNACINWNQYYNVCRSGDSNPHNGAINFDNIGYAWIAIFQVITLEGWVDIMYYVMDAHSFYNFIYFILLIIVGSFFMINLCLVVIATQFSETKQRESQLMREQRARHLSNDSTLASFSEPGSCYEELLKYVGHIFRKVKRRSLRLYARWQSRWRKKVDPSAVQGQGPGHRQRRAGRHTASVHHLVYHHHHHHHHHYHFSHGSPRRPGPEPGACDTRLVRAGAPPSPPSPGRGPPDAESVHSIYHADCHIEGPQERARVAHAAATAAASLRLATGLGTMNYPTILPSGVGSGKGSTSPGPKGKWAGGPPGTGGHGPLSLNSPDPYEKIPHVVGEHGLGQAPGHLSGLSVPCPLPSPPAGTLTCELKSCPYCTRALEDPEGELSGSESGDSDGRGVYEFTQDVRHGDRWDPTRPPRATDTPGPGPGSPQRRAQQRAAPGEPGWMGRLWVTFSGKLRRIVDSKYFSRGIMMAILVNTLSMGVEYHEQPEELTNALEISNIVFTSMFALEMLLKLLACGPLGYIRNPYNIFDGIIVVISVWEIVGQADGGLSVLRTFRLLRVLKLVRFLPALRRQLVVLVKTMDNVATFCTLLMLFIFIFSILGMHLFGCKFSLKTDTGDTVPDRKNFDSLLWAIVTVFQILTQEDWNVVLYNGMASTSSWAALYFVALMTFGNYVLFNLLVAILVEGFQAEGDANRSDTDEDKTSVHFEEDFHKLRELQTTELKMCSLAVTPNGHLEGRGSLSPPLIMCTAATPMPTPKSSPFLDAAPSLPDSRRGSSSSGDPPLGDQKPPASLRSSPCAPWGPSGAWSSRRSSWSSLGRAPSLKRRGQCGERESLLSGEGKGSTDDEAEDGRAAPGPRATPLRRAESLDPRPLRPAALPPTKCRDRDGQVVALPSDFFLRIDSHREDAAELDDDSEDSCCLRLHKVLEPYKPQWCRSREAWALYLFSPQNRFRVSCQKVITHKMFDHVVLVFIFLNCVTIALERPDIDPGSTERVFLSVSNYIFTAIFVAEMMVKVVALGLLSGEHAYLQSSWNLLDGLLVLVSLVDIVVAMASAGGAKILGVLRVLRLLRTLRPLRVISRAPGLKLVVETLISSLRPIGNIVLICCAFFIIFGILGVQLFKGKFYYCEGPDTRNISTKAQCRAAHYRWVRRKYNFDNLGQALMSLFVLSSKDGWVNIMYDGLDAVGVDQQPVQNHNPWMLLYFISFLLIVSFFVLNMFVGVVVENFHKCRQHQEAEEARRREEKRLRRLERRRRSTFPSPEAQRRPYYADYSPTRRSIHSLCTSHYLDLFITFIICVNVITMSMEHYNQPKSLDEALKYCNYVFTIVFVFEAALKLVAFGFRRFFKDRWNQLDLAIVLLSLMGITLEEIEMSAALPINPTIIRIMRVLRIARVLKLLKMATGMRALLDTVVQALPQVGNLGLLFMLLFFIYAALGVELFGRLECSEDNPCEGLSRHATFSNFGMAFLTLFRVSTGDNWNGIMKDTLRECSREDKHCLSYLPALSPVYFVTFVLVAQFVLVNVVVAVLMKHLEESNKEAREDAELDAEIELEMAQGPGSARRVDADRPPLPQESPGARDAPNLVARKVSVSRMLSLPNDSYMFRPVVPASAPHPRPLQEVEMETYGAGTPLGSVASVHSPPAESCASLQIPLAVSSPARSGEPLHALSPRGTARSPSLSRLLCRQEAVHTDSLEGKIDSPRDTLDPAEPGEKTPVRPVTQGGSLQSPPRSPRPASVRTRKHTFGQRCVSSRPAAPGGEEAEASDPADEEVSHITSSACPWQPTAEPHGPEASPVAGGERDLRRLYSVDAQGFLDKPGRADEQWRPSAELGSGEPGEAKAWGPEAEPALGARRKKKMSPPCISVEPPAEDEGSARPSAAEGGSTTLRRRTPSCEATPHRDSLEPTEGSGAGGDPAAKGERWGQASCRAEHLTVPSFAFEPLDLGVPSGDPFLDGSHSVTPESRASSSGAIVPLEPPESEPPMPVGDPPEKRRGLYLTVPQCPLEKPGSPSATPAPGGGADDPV
Method: In order to express a gene encoding T-type calcium channel α1H (Cav3.2) (Cribbs, L. L. et al., Circ. Res., 1998, 83, 103-109) in unfertilized Xenopus oocytes, pGEM-HEA was treated with restriction enzyme AflII to obtain a DNA fragment containing 5′-terminal region having the T-type calcium channel cDNA (AF051946). cRNA having a corresponding sequence to that of the fragment was synthesized using T7 RNA polymerase according to the manufacturer's instructions (mMESSAGE mMACHINE kit, Ambion, Austin, U.S.A.). The synthesized cRNA was quantified by measuring the O.D. value with a spectrophotometer. At this time, unfertilized oocytes were prepared from female Xenopus laevis (Xenopus I, U.S.A.) according to the following method. After the frog's abdomen was incised by about 1 cm, three to four lobes were detached therefrom with scissors and separated into small pieces to which several oocytes were attached. The small pieces were hydrolyzed in OR solution (82.5 mM NaCl, 2.5 mM KCl, 1 mM MgCl2, 5 mM HEPES, pH 7.6) and supplemented with collagenase type IA (Sigma, U.S.A.) to remove defolliculation. After selecting healthy oocytes with a dissecting microscope, they were soaked in SOS solution (100 mM NaCl, 2 mM KCl, 1.8 mM CaCl2, 1 mM MgCl2, 5 mM HEPES, 2.5 mM pyruvate, […] gentamicin, pH 7.6) for 3 to 4 hours to revitalize them. 2 to 5 ng of cRNA was injected into each oocyte using Nano-injector. The oocytes were subjected to a test in order to examine the electrical properties of the channel expressed therefrom 4 to 5 days after the injection while being maintained at 18° C.
The current of the calcium channel expressed from the Xenopus unfertilized oocytes was measured according to a two-electrode voltage clamping method. The current was measured in 10 mM Ba^2+ solution (10 mM Ba(OH)2, 90 mM NaOH, 1 mM KCl, 0.1 mM EDTA, 5 mM HEPES, pH was adjusted to 7.4 with methanesulfonic acid). At this time, the voltage clamp and current measurement were regulated with an amplifier for unfertilized oocytes (Model OC-725C, Warner Instrument Corp., U.S.A.), and analog signals were converted into digital signals using Digidata 2000A (Analog-Digital converter, Axon Instrument). The acquisition, storage and analysis of all data were recorded in Pentium IV computer via pCLAMP8. The data were mainly collected at 5 KHz and filtered at 1 KHz (Model 902 filter; Frequency devices located at Harverhill, Mass., U.S.A.). The T-type current was generated by imposing test electric potential of −20 mV every 15 seconds on the unfertilized oocytes, the potential of which was fixed at −90 mV. A blocking percentage was calculated by comparing the […] before and after the drug treatment.

[2] = biological target: T2, α1G T-type calcium channel (Rattus norvegicus, UniProt O54898); assay: Whole cell patch clamp on HEK 293 cells expressing α1G T-type calcium channel; format: cell-based; details: for IC50: read-out: IC50, HEK293 cells (α1G)
T2 construct: expressed in transfected cells; Perez-Reyes, University of Virginia
T2 sequence (O54898 whole entry): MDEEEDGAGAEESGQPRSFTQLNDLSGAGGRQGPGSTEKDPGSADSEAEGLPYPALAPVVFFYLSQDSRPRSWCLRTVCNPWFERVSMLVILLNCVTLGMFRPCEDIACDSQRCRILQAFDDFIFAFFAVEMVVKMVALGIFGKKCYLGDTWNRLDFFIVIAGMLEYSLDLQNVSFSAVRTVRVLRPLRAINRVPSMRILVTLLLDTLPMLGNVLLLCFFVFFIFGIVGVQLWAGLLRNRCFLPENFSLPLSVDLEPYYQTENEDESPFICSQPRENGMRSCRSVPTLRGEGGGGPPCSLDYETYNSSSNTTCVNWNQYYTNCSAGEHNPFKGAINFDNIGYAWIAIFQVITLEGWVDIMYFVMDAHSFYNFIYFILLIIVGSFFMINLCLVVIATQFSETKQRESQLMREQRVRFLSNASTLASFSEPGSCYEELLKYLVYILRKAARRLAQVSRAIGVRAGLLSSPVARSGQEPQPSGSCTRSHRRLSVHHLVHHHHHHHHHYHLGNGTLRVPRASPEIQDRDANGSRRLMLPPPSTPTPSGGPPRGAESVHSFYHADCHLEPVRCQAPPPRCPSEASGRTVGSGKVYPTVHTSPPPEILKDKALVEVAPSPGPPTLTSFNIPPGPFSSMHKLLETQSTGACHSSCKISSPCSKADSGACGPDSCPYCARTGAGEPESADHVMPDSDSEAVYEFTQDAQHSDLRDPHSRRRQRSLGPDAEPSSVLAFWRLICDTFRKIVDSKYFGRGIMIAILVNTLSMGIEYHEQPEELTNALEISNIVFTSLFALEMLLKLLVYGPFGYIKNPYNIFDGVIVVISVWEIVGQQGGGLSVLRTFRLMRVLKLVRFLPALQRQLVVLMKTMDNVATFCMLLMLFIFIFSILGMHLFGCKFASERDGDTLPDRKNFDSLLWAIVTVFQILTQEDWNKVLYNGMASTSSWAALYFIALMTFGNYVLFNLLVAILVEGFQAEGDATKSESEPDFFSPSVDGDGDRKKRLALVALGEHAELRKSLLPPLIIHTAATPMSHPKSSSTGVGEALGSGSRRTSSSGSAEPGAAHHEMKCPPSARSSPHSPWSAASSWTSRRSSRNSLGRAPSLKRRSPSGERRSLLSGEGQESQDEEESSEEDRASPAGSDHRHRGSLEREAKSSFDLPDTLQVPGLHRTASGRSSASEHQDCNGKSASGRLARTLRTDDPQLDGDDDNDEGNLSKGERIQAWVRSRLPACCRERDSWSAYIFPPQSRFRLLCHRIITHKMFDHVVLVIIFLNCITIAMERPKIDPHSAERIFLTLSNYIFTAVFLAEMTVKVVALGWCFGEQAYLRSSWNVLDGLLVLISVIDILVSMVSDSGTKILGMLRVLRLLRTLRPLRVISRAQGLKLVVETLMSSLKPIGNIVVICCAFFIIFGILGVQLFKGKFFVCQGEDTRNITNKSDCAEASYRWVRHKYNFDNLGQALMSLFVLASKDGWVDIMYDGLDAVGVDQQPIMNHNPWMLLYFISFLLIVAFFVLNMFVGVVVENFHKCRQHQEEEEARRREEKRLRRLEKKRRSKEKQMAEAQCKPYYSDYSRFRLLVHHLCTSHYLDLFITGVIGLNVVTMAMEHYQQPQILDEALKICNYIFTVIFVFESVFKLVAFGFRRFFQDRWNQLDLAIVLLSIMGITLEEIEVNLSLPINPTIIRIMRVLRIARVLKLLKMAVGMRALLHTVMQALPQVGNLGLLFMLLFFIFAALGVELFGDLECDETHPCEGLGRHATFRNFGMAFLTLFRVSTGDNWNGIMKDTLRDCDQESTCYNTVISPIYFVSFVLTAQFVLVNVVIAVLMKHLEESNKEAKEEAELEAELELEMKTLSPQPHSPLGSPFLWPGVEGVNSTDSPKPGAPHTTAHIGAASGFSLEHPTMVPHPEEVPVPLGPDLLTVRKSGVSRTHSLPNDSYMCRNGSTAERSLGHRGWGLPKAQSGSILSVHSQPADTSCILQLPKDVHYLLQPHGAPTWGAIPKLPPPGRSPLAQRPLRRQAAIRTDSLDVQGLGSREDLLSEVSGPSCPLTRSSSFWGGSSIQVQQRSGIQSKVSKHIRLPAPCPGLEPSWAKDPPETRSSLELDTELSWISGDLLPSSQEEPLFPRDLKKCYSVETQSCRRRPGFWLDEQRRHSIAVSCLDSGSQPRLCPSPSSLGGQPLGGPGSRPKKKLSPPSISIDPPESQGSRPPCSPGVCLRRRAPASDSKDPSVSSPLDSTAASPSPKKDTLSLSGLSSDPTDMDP
Method: HEK 293 cells were cultured in Dulbecco's modified Eagle's medium (DMEM) supplemented with 10% fetal bovine serum (FBS) and 1% penicillin/streptomycin (v/v) in 36.5° C. humidified incubator (95% air-5% CO2). The culture solution was replaced with a fresh medium every 3 to 4 days and the cultured cells were subjected to sub-culture every week. At this time, the culture solution was treated with G-418 (0.5 mg/ml) solution so that only HEK 293 cells expressing α1G T-type calcium channel can grow. The cells used for the T-type calcium channel activity assay were cultured on a cover slip coated with poly-L-lysine (0.5 mg/ml) whenever sub-cultured and their calcium channel activity was recorded 2 to 7 days after the cultivation. The current of the T-type calcium channel at a single cell level was measured according to an electrophysiological whole cell patch clamping method using EPC-9 amplifier (HEKA, German). At this time, a cell exterior solution [140 mM NaCl, 2 mM CaCl2, 10 mM HEPES (pH 7.4)] and a cell interior solution [KCl 130 mM, HEPES 10 mM, EGTA 11 mM, MgATP 5 mM (pH 7.4)] were employed. The inward current caused by the T-type calcium channel activation was measured according to a T-type calcium channel protocol activated at low current. Such current occurs when the cells were converted into a whole-cell recording mode by stabbing a microglass electrode having 3-4 MΩ resistance, which was filled with the cell interior solution into a single cell and depolarized at −30 mV (50 ms duration period) every 10 seconds with fixing membrane potential to −100 mV.
In order to confirm whether the cells and methods used in Test Example 2 are a suitable screening system for selecting T-type calcium channel blockers, the results obtained in Example 2 were compared with those of α1G T-type calcium channel study reported in a public document (Monteil, A. et al., J. Biol. Chem. 275, 6090-6100, 2000). […] Thus, the candidate compounds were subjected to a test for their inhibitory effects on the T-type calcium channel according to the screening system of the present invention, as follows. Each compound was dissolved in 100% dimethylsulfoxide (DMSO) to prepare 10 mM stock solution. The inhibitory effect on the T-type calcium channel current was examined in 10 μM sample solution (containing 0.1% DMSO) prepared by diluting the stock solution by 1000-fold. The cells were treated with each compound at a concentration of 10 μM for 30 to 60 sec with the cell exterior solution.

[3] = HEK293, 10 μM, HEK 293 cells expressing α1G, 30 to 60 sec treatment, read-out: inhibitory effect on peak current, HEK293 cells (α1G) at 10 μM
[4] = HEK293, read-out: inhibitory effect on peak current, HEK293 cells (α1G) at 10 μM

inhibition at 100 µM [1] [%] | inhibition at 10 µM [2, 3] [%] | inhibitory effect (blocking percentage), Xenopus oocyte (α1H) at 100 μM [1] [%] | Compound | IC50 ([2]; HEK 293 cells expressing α1G) [µM] | inhibition at 10 µM [2, 4] [%]
20.9 |  |  | O=C(CC1c2ccccc2N=C(N2CCOCC2)N1c1ccccc1)OCc1ccccc1 (stereo not shown) [Compound 05027] |  | 
32.7 |  |  | CN1CCN(C2=Nc3ccccc3C(CC(=O)OCc3ccccc3)N2c2ccccc2)CC1 (stereo not shown) [Compound 05029] |  | 
14.8 |  |  | O=C(CC1c2ccccc2N=C(c2ccccc2)N1c1ccccc1)NCc1ccccc1 (stereo not shown) [Compound 05031] |  | 
14.2 |  |  | O=C(CC1c2ccccc2N=C(c2ccccc2)N1c1ccccc1)OCc1ccccc1 (stereo not shown) [Compound 05032] |  | 
38.9 |  |  | CCO/C(O)=C(\C#N)C1=Nc2ccccc2C(CC(=O)OC)N1c1ccccc1 (stereo not shown) [Compound 05033] |  | 
66.8 | 43.5 |  | Nc1ccc(CNC(=O)CC2c3ccccc3N=C(N3CCCCC3)N2c2ccccc2)cc1 (stereo not shown) [Compound 05040] | 14.4 | 
63.8 | 40.5 |  | O=C(CC1c2ccccc2N=C(N2CCOCC2)N1c1ccccc1)NCc1ccccc1 (stereo not shown) [KYS05026, 4-(N-benzylacetamido)-3-phenyl-2-(morpholin-1-yl)-3,4-dihydroquinazoline] | 21.6 | 
86 |  | 86.0 | COCC(=O)O[C@]1(CCN(C)CCCc2nc3ccccc3[nH]2)CCc2cc(F)ccc2[C@@H]1C(C)C [Mibefradil, reference compound] |  | 

Compound | inhibition at 100 µM [1] [%] | inhibition at 10 µM [2, 3] [%] | inhibitory effect (blocking percentage), Xenopus oocyte (α1H) at 100 μM [1] [%] | IC50 ([2]; HEK 293 cells expressing α1G) [µM] | inhibition at 10 µM [2, 4] [%]
CN1CCN(C2=Nc3ccccc3C(CC(=O)NCc3ccccc3)N2c2ccccc2)CC1 (stereo not shown) [KYS05028, 4-(N-benzylacetamido)-3-phenyl-2-(4-methylpiperazinyl)-3,4-dihydroquinazoline] | 70.3 |  |  | 35.8 | 29
O=C(CC1c2ccccc2N=C(N2CCCCC2)N1c1ccccc1)NCc1ccc([N+](=O)[O-])cc1 (stereo not shown) [KYS05034, 4-[N-(4-nitrobenzyl)acetamido]-3-phenyl-2-(piperidine-1-yl)-3,4-dihydroquinazoline] | 91.9 |  |  | 2.5 | 92.3
